PubChem BioAssay AID330 (DTP/NCI, 2004)
Values joined by “and” are separate entries in the source; they are usually repeats but may differ in a detail not shown here. Equal values may be shown once. Toxic doses and inconclusive results are not listed.

Test system: P388 leukemia ip, CD2F1 mice, survival T/C
Assay: NCI In Vivo Anticancer Drug Screen. Data for tumor model P388 Leukemia (intraperitoneal) in CD2F1 (CDF1) mice
Settings: endpoint: median survival time, higher = longer survival
Procedure, shortened: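 Mice carrying the transplanted tumor received test compound or vehicle. Survival was recorded in each group, and the value is the treated-group measurement divided by that of the vehicle-treated control group.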

[1] = dose: 100.0 mg/kg/injection, schedule: Q01DX009 (ip), vehicle: water
[2] = dose: 25.0 mg/kg/injection, schedule: Q01DX009 (ip), vehicle: distilled water + Tween-80
[3] = dose: 50.0 mg/kg/injection, schedule: Q01DX009 (ip), vehicle: distilled water + Tween-80
[4] = dose: 100.0 mg/kg/injection, schedule: Q01DX009 (ip), vehicle: distilled water + Tween-80
[5] = dose: 200.0 mg/kg/injection, schedule: Q01DX009 (ip), vehicle: distilled water + Tween-80
[6] = dose: 50.0 mg/kg/injection, schedule: Q01DX005 (ip), vehicle: Klucel (hydroxypropylcellulose) (HPC)
[7] = dose: 100.0 mg/kg/injection, schedule: Q01DX005 (ip), vehicle: Klucel (hydroxypropylcellulose) (HPC)
[8] = dose: 200.0 mg/kg/injection, schedule: Q01DX005 (ip), vehicle: Klucel (hydroxypropylcellulose) (HPC)
[9] = dose: 50.0 mg/kg/injection, schedule: Q01DX009 (ip), vehicle: saline
[10] = dose: 100.0 mg/kg/injection, schedule: Q01DX009 (ip), vehicle: saline
[11] = dose: 200.0 mg/kg/injection, schedule: Q01DX009 (ip), vehicle: saline
[12] = dose: 100.0 mg/kg/injection, schedule: Q01DX001 (ip), vehicle: saline with Tween-80
[13] = dose: 200.0 mg/kg/injection, schedule: Q01DX001 (ip), vehicle: saline with Tween-80

CN(C)C(CC(=O)O)C(=O)O (configuration not stated)
T/C (dose: 50.0 mg/kg/injection, schedule: Q01DX009 (ip), vehicle: water): 108 % of control | T/C [1]: 98 % of control | T/C (dose: 200.0 mg/kg/injection, schedule: Q01DX009 (ip), vehicle: water): 99 % of control

CC(=O)N1CN2CN(C1)CN(C(C)=O)C2
T/C (dose: 100.0 mg/kg/injection, schedule: Q01DX001 (ip), vehicle: saline): 105 % of control | T/C (dose: 200.0 mg/kg/injection, schedule: Q01DX001 (ip), vehicle: saline): 104 % of control | T/C (dose: 400.0 mg/kg/injection, schedule: Q01DX001 (ip), vehicle: saline): 107 % of control

O=c1[nH]/c(=C/c2ccc(CO)o2)c(=O)[nH]/c1=C\c1ccc(CO)o1
T/C (dose: 12.5 mg/kg/injection, schedule: Q01DX009 (ip), vehicle: distilled water + Tween-80): 90 % of control | T/C [2]: 89 % of control | T/C [3]: 87 % of control | T/C [4]: 87 % of control | T/C [5]: 90 % of control

CC1CN(CC#CCN2C(=O)CCC2=O)CC(C)O1 (configuration not stated)
T/C (dose: 25.0 mg/kg/injection, schedule: Q01DX005 (ip), vehicle: Klucel (hydroxypropylcellulose) (HPC)): 103 % of control | T/C [6]: 107 % of control | T/C [7]: 103 % of control | T/C [8]: 107 % of control

COCCN(CCOC)C(C(=O)Cc1ccccc1)c1ccccc1 (configuration not stated)
T/C (dose: 50.0 mg/kg/injection, schedule: Q01DX005 (ip), vehicle: saline with Tween-80): 99 % of control | T/C (dose: 100.0 mg/kg/injection, schedule: Q01DX005 (ip), vehicle: saline with Tween-80): 101 % of control | T/C (dose: 200.0 mg/kg/injection, schedule: Q01DX005 (ip), vehicle: saline with Tween-80): 103 % of control

Cc1cc(=O)oc2c3c4c(cc12)CCCN4CCC3
T/C (dose: 100.0 mg/kg/injection, schedule: Q04DX003 (ip), vehicle: Klucel (hydroxypropylcellulose) (HPC)): 111 % of control | T/C (dose: 200.0 mg/kg/injection, schedule: Q04DX003 (ip), vehicle: Klucel (hydroxypropylcellulose) (HPC)): 109 % of control

COc1cc2c[n+](C)c3ccccc3c2cc1OC
T/C (dose: 12.5 mg/kg/injection, schedule: Q01DX009 (ip), vehicle: water): 112 % of control and 115 % of control | T/C (dose: 25.0 mg/kg/injection, schedule: Q01DX009 (ip), vehicle: water): 124 % of control | T/C [1]: 105 % of control

COC(=O)NN(C(=O)OC)C12CCCCC1N(C(=O)OC)N(C(=O)OC)c1c2ccc2cc(OC)ccc12 (configuration not stated)
T/C (dose: 100.0 mg/kg/injection, schedule: Q01DX001 (ip), vehicle: Klucel (hydroxypropylcellulose) (HPC)): 96 % of control | T/C (dose: 200.0 mg/kg/injection, schedule: Q01DX001 (ip), vehicle: Klucel (hydroxypropylcellulose) (HPC)): 92 % of control | T/C (dose: 400.0 mg/kg/injection, schedule: Q01DX001 (ip), vehicle: Klucel (hydroxypropylcellulose) (HPC)): 91 % of control

Cc1onc(-c2ccccc2)c1C(=O)N/N=C/c1cc(Cl)cc(Cl)c1O
T/C [9]: 103 % of control | T/C [10]: 91 % of control | T/C [11]: 99 % of control

C=CC(=O)N/C(N)=N\C(N)=O
T/C (dose: 3.0 mg/kg/injection, schedule: Q01DX005 (ip), vehicle: saline): 110 % of control | T/C (dose: 6.0 mg/kg/injection, schedule: Q01DX005 (ip), vehicle: saline): 112 % of control | T/C (dose: 12.0 mg/kg/injection, schedule: Q01DX005 (ip), vehicle: saline): 113 % of control | T/C (dose: 12.5 mg/kg/injection, schedule: Q01DX005 (ip), vehicle: saline): 113 % of control

CSc1nc(SC)c2c(C)c(Br)[nH]c2n1
T/C [12]: 94 % of control | T/C [13]: 94 % of control | T/C (dose: 400.0 mg/kg/injection, schedule: Q01DX001 (ip), vehicle: saline with Tween-80): 89 % of control

COc1ccc(/C=C/c2ccc(S(=O)(=O)c3ccc(/C=C/c4ccc(OC)cc4)c(NC(C)=O)c3)cc2NC(C)=O)cc1
T/C (dose: 25.0 mg/kg/injection, schedule: Q01DX009 (ip), vehicle: saline with Tween-80): 97 % of control | T/C (dose: 50.0 mg/kg/injection, schedule: Q01DX009 (ip), vehicle: saline with Tween-80): 97 % of control | T/C (dose: 100.0 mg/kg/injection, schedule: Q01DX009 (ip), vehicle: saline with Tween-80): 92 % of control

CN(C)CNC(=O)c1ccccc1
T/C (dose: 1.25 mg/kg/injection, schedule: Q01DX009 (ip), vehicle: water): 99 % of control | T/C (dose: 2.5 mg/kg/injection, schedule: Q01DX009 (ip), vehicle: water): 121 % of control | T/C (dose: 5.0 mg/kg/injection, schedule: Q01DX009 (ip), vehicle: water): 99 % of control | T/C (dose: 10.0 mg/kg/injection, schedule: Q01DX009 (ip), vehicle: water): 100 % of control | T/C (dose: 20.0 mg/kg/injection, schedule: Q01DX009 (ip), vehicle: water): 99 % of control

COc1cc2c[n+](C)c3c4cc(OC)c(OC)cc4c(O)cc3c2cc1OC
T/C [6]: 99 % of control | T/C [7]: 97 % of control | T/C [8]: 99 % of control

CS(=O)(=O)N1CC=CCS1=O (configuration not stated)
T/C (dose: 6.25 mg/kg/injection, schedule: Q01DX009 (ip), vehicle: Klucel (hydroxypropylcellulose) (HPC)): 103 % of control | T/C (dose: 12.5 mg/kg/injection, schedule: Q01DX009 (ip), vehicle: Klucel (hydroxypropylcellulose) (HPC)): 108 % of control | T/C (dose: 25.0 mg/kg/injection, schedule: Q01DX009 (ip), vehicle: Klucel (hydroxypropylcellulose) (HPC)): 108 % of control

O=c1cc(-c2ccccc2)[nH]c(=O)[nH]1
T/C (dose: 25.0 mg/kg/injection, schedule: Q04DX003 (ip), vehicle: saline with Tween-80): 99 % of control | T/C (dose: 50.0 mg/kg/injection, schedule: Q04DX003 (ip), vehicle: saline with Tween-80): 101 % of control | T/C (dose: 100.0 mg/kg/injection, schedule: Q04DX003 (ip), vehicle: saline with Tween-80): 107 % of control

CCOc1ccc(C(C)c2cc3c(cc2OC)OCO3)cc1C (configuration not stated)
T/C [6]: 109 % of control and 113 % of control | T/C [7]: 108 % of control and 118 % of control | T/C [8]: 116 % of control | T/C (dose: 400.0 mg/kg/injection, schedule: Q01DX005 (ip), vehicle: Klucel (hydroxypropylcellulose) (HPC)): 165 % of control

CONCc1ccc(C(=O)NC(C)C)cc1
T/C [2]: 105 % of control | T/C [3]: 106 % of control | T/C [4]: 90 % of control | T/C [5]: 90 % of control

CC1(C)CC(OS(C)(=O)=O)CC(C)(C)N1O
T/C (dose: 50.0 mg/kg/injection, schedule: Q01DX009 (ip), vehicle: Klucel (hydroxypropylcellulose) (HPC)): 100 % of control | T/C (dose: 100.0 mg/kg/injection, schedule: Q01DX009 (ip), vehicle: Klucel (hydroxypropylcellulose) (HPC)): 99 % of control

Cc1ccc(O)c[n+]1[O-]
T/C (dose: 25.0 mg/kg/injection, schedule: Q01DX009 (ip), vehicle: saline): 101 % of control | T/C [9]: 100 % of control and 105 % of control | T/C [10]: 102 % of control and 97 % of control | T/C [11]: 105 % of control and 117 % of control | T/C (dose: 400.0 mg/kg/injection, schedule: Q01DX009 (ip), vehicle: saline): 108 % of control and 109 % of control

N#CC(C(=O)CCCC(=O)Nc1cccc([N+](=O)[O-])c1)c1cccc2ccccc12 (configuration not stated)
T/C (dose: 60.0 mg/kg/injection, schedule: Q01DX005 (ip), vehicle: saline with Tween-80): 104 % of control | T/C (dose: 120.0 mg/kg/injection, schedule: Q01DX005 (ip), vehicle: saline with Tween-80): 108 % of control | T/C (dose: 240.0 mg/kg/injection, schedule: Q01DX005 (ip), vehicle: saline with Tween-80): 101 % of control

c1c[nH]c(C2Nc3ccccc3CO2)c1 (configuration not stated)
T/C [6]: 115 % of control | T/C [7]: 107 % of control | T/C [8]: 112 % of control

CSCCC(NCc1c(O)ccc2c(C)cc(=O)oc12)C(=O)O (configuration not stated)
T/C (dose: 60.0 mg/kg/injection, schedule: Q01DX005 (ip), vehicle: Klucel (hydroxypropylcellulose) (HPC)): 93 % of control | T/C (dose: 120.0 mg/kg/injection, schedule: Q01DX005 (ip), vehicle: Klucel (hydroxypropylcellulose) (HPC)): 98 % of control | T/C (dose: 240.0 mg/kg/injection, schedule: Q01DX005 (ip), vehicle: Klucel (hydroxypropylcellulose) (HPC)): 99 % of control

NC1(N)ON(c2ccc(C=O)cc2)C(c2ccc([N+](=O)[O-])cc2)S1 (configuration not stated)
T/C [6]: 89 % of control | T/C [7]: 95 % of control | T/C [8]: 89 % of control

COC(=O)CC(c1ccccc1)C1(c2ccc3c(c2)OCO3)SCCCS1 (configuration not stated)
T/C [12]: 92 % of control | T/C [13]: 90 % of control
